# Experimental data from US9249097B2, “3-aminocarbazole compound, pharmaceutical composition containing it and preparation method therefor” (AZIENDE CHIM. RIUN. ANG. FRANC. A.C.R.A.F. S.p.A., priority 2008, dated 2016).
# pIC50: −log10 of the molar value.
# Experiments:
# [1] = Metabolic stability in human hepatic microsomes; conditions: 1 μM
# Protocol: (§1) This test allows evaluation of the metabolic stability of the compounds of the invention and of the comparative compounds in rats and in man.
# (§2) The compounds to be analysed, at a final concentration of 0 and 1 μM, were placed in a suspension containing the pool of microsomes at a final concentration of 0.5 mg/mL in a final volume of 200 μL, in 96-well plates. The test was standardized with phosphate buffer (75 mM, pH 7.4) and with the NADPH regenerating system (MgCl2: 3.3 mM; G6P: 3.3 mM; G6PD: 0.4 U/mL; NADP+: 1.3 mM). […] The samples were incubated at 37° C. in a humidified incubator. At time 0 and after 60 minutes, 100 μL of acetonitrile containing the internal standard (0.2 μM of metoprolol and 0.4 μM of diclofenac) were added to stop the reaction.
# (§3) The samples were centrifuged before analysis. The HPLC/MS/MS analysis was performed using an electrospray ion source in positive ionization and SRM (Single Reaction Mode). The chromatographic conditions entail the use of an XDB-C18 column (2.1×50 mm, Agilent) and a gradient from 5% to 91% of acetonitrile in water containing 0.1% formic acid (total runtime equal to 6 minutes); the flow rate was 0.5 ml/minute.
# (§4) The areas of the peaks for the test compounds were integrated and the results expressed as the analyte area/internal standard (PAR) area ratio. For each time, two samples were analysed and the mean value calculated. The percentage of the value of remaining compound was calculated as: % unmetabolized compound=100*(mean PARTfinal/mean PART0).
# [2] = Metabolic stability in rat hepatic microsomes; conditions: 1 μM
# Protocol: as §1, §2, §3, §4
# [3] = In vivo bioavailability, oral cassette dosing; conditions: oral 5 mg/kg; for Cmax / Tmax / AUC(0-t): plasma; for AUC(0-t): first seven hours, read-out: AUC0-7
# Protocol: This test allowed evaluation of the in vivo bioavailability of the compounds of the invention, thus making it possible to evaluate and compare the pharmacokinetic profile of the test compounds.
# The tests were performed using the cassette method, i.e. by administering orally several products simultaneously to the same animal, at a dose of 5 mg/kg. The products were suspended in methylcellulose (MTC). The treated animals were catheterized for the serial collection of blood samples performed by means of an automatic sampling system. The plasmatic concentrations of the products were measured by HPLC/MS/MS. The profiles of the plasmatic concentrations over time made it possible to evaluate the relative bioavailability of the test products in terms of rate (tmax and Cmax) and […] (AUC). The slope of the curve in the end portion also allowed a comparative evaluation of the rate of elimination of the compounds from the plasma, the slower the rate, the lower the slope. Three animals were treated for each combination of compounds.
# The results, expressed as the Cmax, i.e. as the maximum concentration of drug reached in the plasma, Tmax, i.e. the time required to reach the maximum drug concentration in the plasma, and AUC0-7, i.e. the area under the curve of the plasmatic concentrations of drug over time, measured in the first seven hours after administration, are given in Table 5.
# in vitro = conditions: human, Caco-2, pH 7.4
# Protocol: This test allows evaluation of the amount absorbed by the intestinal barrier of the compounds of the invention and of the comparative compounds using the Caco-2 cell line as an in vitro model of intestinal barrier. The permeability test on Caco-2 cells represents an in vitro system approved for predicting and estimating the in vivo intestinal absorption of a drug. When the Caco-2 cells are cultured on a porous filter for about 21 days, they have the capacity to differentiate into enterocytes.
# The compounds undergoing the test were diluted from a 10 mM stock solution in HBSS to a final concentration of 10 μM. The system consisted of a confluent cellular monolayer in culture for 21-28 days.
# Each compound was tested in triplicate, bidirectionally, at pH 7.4, from the apical to the basolateral compartment (A→B) and from the basolateral to the apical compartment (B→A).
# The samples collected at the given time were analysed by HPLC-MS/MS, using an electrospray ion source in positive ionization and SRM (Single Reaction Mode). The chromatographic conditions entailed the use of an XDB-C18 column (2.1×50 mm, Agilent) with a gradient from 5% to 91% of acetonitrile in water containing 0.1% formic acid (total runtime equal to 6.5 minutes) and a flow rate of 0.5 ml/minute. Metoprolol was used as the internal standard.
# The concentration data were used to calculate the apparent permeability values (Papp), and the mean and standard deviation of the Papp were calculated.
# The flux ratio was calculated as Papp(B→A)/Papp(A→B). The recovery percentage was calculated as: (amount in the receiving compartment+amount in the donor compartment)/nominal amount
# The area of the peaks of the test compounds were integrated and the results were expressed as the analyte area/internal standard area ratio and corrected for the dilution factor used during the preparation of the sample. The apparent permeability coefficients were calculated using the following equation: […]
# in which: • VA volume in the receiving well (0.25 mL for the test from A→B, 0.075 mL for the test from B→A) • Area area of the membrane surface (0.11 cm^2) • Time total transport time (3600 seconds)
# production of PGF2α = experiment: Inhibition of PGF2α production in IL-1β-stimulated A549 cells (EIA); format: cell-based; conditions: Homo sapiens, IL-1β 1 ng/ml, 22 hours
# From the text: (§5) This test allows evaluation of the inhibitory capacity on the production of the PGE2 and the selectivity relative to the production of the PGF2α.
# (§6) The cell line A549, human pulmonary adenocarcinoma, was used, which is particularly sensitive to stimulation with pro-inflammatory cytokines, for instance IL-1β, and, in response to this stimulation, is particularly active in the production and release of two prostanoids: PGE2 and PGF2α (Thoren S. Jakobsson P-J, 2000).
# (§7) The cells were stimulated with IL-1β (1 ng/ml) and simultaneously treated with the test compound for 22 hours in an appropriate culture medium (DMEM—Dulbecco's Modified Eagle's Medium) supplemented with 5% foetal calf serum and L-glutamine (4 mM final) in an incubator at 37° C. and at a CO2 concentration of 5%.
# (§8) After the incubation, the amount of PGE2 and PGF2α produced and released into the supernatant were assayed using an EIA kit (produced and sold by Cayman Chemicals, Ann Arbor, Mich., USA).
# (§9) The comparative compound used was indomethacin at a concentration of 10 nM (Sigma-Aldrich), a non-steroidal anti-inflammatory drug that inhibits in equal measure both PGE2 and PGF2α.
# (§10) The results, expressed as the IC50 values, i.e. as the concentration of compound that inhibits 50% of the production of PGE2 and of PGF2α relative to the cells that have been stimulated, but not treated with the same compound, are given in Table 2. The inactivity or the reduced activity of the compound on the biosynthesis of PGF2α is an indication of selectivity towards the production of PGE2 and thus of selective inhibition of mPGES-1.
# production of PGE2 = experiment: Inhibition of PGE2 production in IL-1β-stimulated A549 cells (EIA); format: cell-based; conditions: Homo sapiens, IL-1β 1 ng/ml, 22 hours
# From the text: as §5, §6, §7, §8, §9, §10
# mice = experiment: Acetic acid-induced writhing in mice; format: in vivo; conditions: for No. of writhes: 20 minutes after acetic acid; for % of inhibition: writhes vs vehicle
# Protocol: The test compound was evaluated in the model of acetic acid-induced writhing in mice (Stock J. L. et al., J. Clin. Inv. 2001, 107: 325-331). This test allows evaluation of the antinociceptive activity of the compounds of the invention in a model of inflammatory pain.
# Female CD-1 mice weighing 25-30 g were used for the test. The animals were treated intraperitoneally with the test compound (0.1-10 mg/kg) suspended in methylcellulose (MTC). The control animals were treated with the vehicle alone (MTC) via the same route.
# Half an hour after the treatment, an intraperitoneal injection of acetic acid (0.7% v/v in physiological saline, 16 μl/g of body weight) was given to the animals to induce inflammatory pain and to check the effects of the test compound on the nociceptive response.
# Immediately after the administration of acetic acid and for the following 20 minutes the number of writhes was measured, which represents the parameter for evaluation of the nociceptive response.
# [4] = Sprague-Dawley, rat, microsomes, 1 h, pH 7.4
# [5] = microsomes 0.5 mg/mL, 60 minutes, 37° C.
Compound,"% unmetabolized compound, Man ([1]; human, microsomes, 1 h, pH 7.4) [%]","% unmetabolized compound, Rat [2, 4] [%]","Papp at 3600 seconds, 10 μM (in vitro) [×10⁻⁶ cm/s]",melting point [°C],pIC50 (production of PGF2α),pIC50 (production of PGE2),also measured
"CC(=O)CC(c1ccccc1)c1c(O)c2ccccc2oc1=O (stereo not drawn) [Warfarin, warfarin, reference compound]",103,97,,,,,
"CC(C)(O)Cn1c2ccccc2c2cc(NC(=O)c3ccccc3C(F)(F)F)ccc21 [Compound 2, N-[9-(2-hydroxy-2-methylpropyl)-9H-carbazol-3-yl]-2-(trifluoro-methyl)benzamide]",82,68,> 20,179 to 181,< 4.00,5.64,bioavailability / absorption in words [3]: good bioavailability characteristics; Cmax [3]: 984 ng/mL; Tmax [3]: 4.3 h; AUC(0-t) [3]: 5400 ng·h/mL
"C[C@H]1O[C@@H](O[C@H]2[C@@H](O)C[C@H](O[C@H]3[C@@H](O)C[C@H](O[C@H]4CC[C@@]5(C)[C@H](CC[C@@H]6[C@@H]5C[C@@H](O)[C@]5(C)[C@@H](C7=CC(=O)OC7)CC[C@]65O)C4)O[C@@H]3C)O[C@@H]2C)C[C@H](O)[C@@H]1O [Digoxin, digoxin, reference compound]",,,< 2,,,,
"CC(=O)Cn1c2ccccc2c2cc(NC(=O)c3ccccc3C(F)(F)F)ccc21 [Compound 4, N-[9-(2-oxopropyl)-9H-carbazol-3-yl]-2-(trifluoromethyl)benzamide]",7,58,> 20,223 to 226,< 4.00,5.25,
"O=C(Nc1ccc2c(c1)c1ccccc1n2CCO)c1ccccc1Cl [Compound 5, 2-chloro-N-[9-(2-hydroxyethyl)-9H-carbazol-3-yl]benzamide]",76,63,> 20,168 to 169,,,
"CC(C)(O)CCn1c2ccccc2c2cc(NC(=O)c3ccccc3C(F)(F)F)ccc21 [Compound 3, N-[9-(3-hydroxy-3-methylbutyl)-9H-carbazol-3-yl]-2-(trifluoromethyl)benzamide]",77,65,> 20,188 to 189,< 4.00,5.85,bioavailability / absorption in words [3]: good bioavailability characteristics; Cmax [3]: 457 ng/mL; Tmax [3]: 1.8 h; AUC(0-t) [3]: 2670 ng·h/mL
"COc1ccc2c(c1)c(CC(=O)O)c(C)n2C(=O)c1ccc(Cl)cc1 [Indomethacin, indomethacin, reference compound]",,,,,8.52,8.30,
"C[C@]12CC[C@H]3[C@@H](CCC4=CC(=O)CC[C@@]43C)[C@@H]1CC[C@@H]2O [Testosterone, testosterone, reference compound]",,,,,,,"% unmetabolized compound, Man [1, 5]: 27%; % unmetabolized compound, Rat [2, 5]: 0%"
"CC(C)NCC(O)COc1cccc2ccccc12 (stereo not drawn) [Propranolol, propranolol, reference compound]",,,> 20,,,,
"O=C(Nc1ccc2c(c1)c1ccccc1n2CCO)c1ccccc1C(F)(F)F [Compound 1, N-[9-(2-hydroxyethyl)-9H-carbazol-3-yl]-2-(trifluoromethyl)benzamide]",81,58,> 20,176 to 177,< 4.00,5.54,bioavailability / absorption in words [3]: good bioavailability characteristics; Cmax [3]: 1200 ng/mL; Tmax [3]: 1.5 h; AUC(0-t) [3]: 5750 ng·h/mL; No. of writhes (mice; 0.1 mg/kg intraperitoneally): 38.4 ± 3.99; % of inhibition (mice; 0.1 mg/kg intraperitoneally): 21%; No. of writhes (mice; 1 mg/kg intraperitoneally): 31.5 ± 5.72; % of inhibition (mice; 1 mg/kg intraperitoneally): 35%; No. of writhes (mice; 10 mg/kg intraperitoneally): 12.8 ± 2.46; % of inhibition (mice; 10 mg/kg intraperitoneally): 74%
"CC(C)(O)CCn1c2ccccc2c2cc(NC(=O)c3ccccc3Cl)ccc21 [Compound 6, 2-chloro-N-[9-(3-hydroxy-3-methylbutyl)-9H-carbazol-3-yl]benzamide]",65,74,> 20,120 to 124,< 4.00,6.22,
